According to patent US20150328169A1, “POLYMERIC PARTICLES-BASED TEMOZOLOMIDE DOSAGE FORM” (OY FILANA LTD, priority 2012, published 2015):

How the values were obtained:
[1] = Acute toxicity, single intraperitoneal dose, Litchfield-Wilcoxon; format: in vivo, mice; conditions: mouse, in vivo, ip, i.p. single dose, 14th day
Procedure: (§1) The comparative analysis of the acute toxic action of the temozolomide substance and of the polymeric composition based thereon (Composition 1 as in Example 1) was performed on male and female Balb/c mice weighing 19-21 g as of the time of testing, 6 animals in each group. The mice were kept in standard cages No. 4, in the conditions of unlimited access to water and food, at natural lighting changes. Testing the toxic action of the drugs started upon a two-week isolation period of the animals. The drug was administered intraperitoneally, as a single dose. Water for injection was used as a medium. Upon the drug administration, the animals were continuously monitored for 24 hours. The total observation time was 28 days. According to the research results, the LD50 values were calculated as per the state of animals on the 14th day upon the administration of the drugs. The value of the mean lethal dose (LD50) was determined by Litchfield-Wilcoxon method [Belenky M. L. Elementy kolichestvennoy otsenki farmakologicheskogo effekta [In Russian: Elements of Drug-Induced Effect Quantitative Estimation]/2-e izd. pererab. i dop. L.: Medgiz, 1963. p. 81-106].

[2] = test system: Balb/c mice; test: as above; format: in vivo; conditions: i.p. single dose; for LD16 / LD84 / LD100: 14th day
Procedure: as §1

[3] = test system: B16 melanoma tumor; test: Antitumor activity in vivo, solid tumor of B-16 mouse melanoma; parameters: species or system mice; conditions: 40 mg/kg, 9th day of treatment
[4] = clinical trials; cited from earlier work

**Q.** Which LD50 at 14 days ([1]; female Balb/c mice) does the source give for Cn1nnc2c(C(N)=O)ncn2c1=O [Temozolomide Substance, 8-carbamoyl-3-methyl-imidazo[5,1-d]-1,2,3,5-tetrazin-4-(3H)-one] here?
**A.** 467 mg/kg

**Q.** What about the LD50 at 14 days ([1]; male Balb/c mice) of the same molecule?
**A.** 472 mg/kg

**Q.** And the Toxic dose range ([2]; female Balb/c mice)?
**A.** Toxic dose range was 426.5-526.7 mg/kg

**Q.** And the LD16 ([2]; female Balb/c mice)?
**A.** LD16 426.5 mg/kg

**Q.** And the LD84 ([2]; female Balb/c mice)?
**A.** LD84 506.7 mg/kg

**Q.** And the LD100 ([2]; female Balb/c mice)?
**A.** LD100 526.7 mg/kg

**Q.** What about the Toxic dose range ([2]; male Balb/c mice) of the same molecule?
**A.** Toxic dose range was 424.0-543.5 mg/kg

**Q.** And the LD16 ([2]; male Balb/c mice)?
**A.** LD16 424.0 mg/kg

**Q.** And the LD84 ([2]; male Balb/c mice)?
**A.** LD84 519.6 mg/kg

**Q.** And the LD100 ([2]; male Balb/c mice)?
**A.** LD100 543.5 mg/kg

**Q.** What about the “tumor growth inhibition (TGI)” value [3] of the same molecule?
**A.** 90%

**Q.** What about the half lifetime [4] of the same molecule?
**A.** 1.8 h
